Results published in PMC6792352, “Limited Chemical Structural Diversity Found to Modulate Thyroid Hormone Receptor in the Tox21 Chemical Library” (Environmental Health Perspectives, 2019).
Where a name gives a salt, the structure may show the parent alone.

Assay: in vitro
Conditions: rat, gh3-tre-luc cells

SMILES	CC50 at 24 h (AC50 (uM) modified / 1000)	other results
C[C@H](N)[C@H](O)c1ccc(O)c(O)c1 [Levonordefrin]	–	CC50 at 24 h (AC50 (uM) modified / 1000, Tox21_110001=Tox21_112051, viability, 1 nM T3 present, 24 h): 22 µM
C#C[C@]1(O)CC[C@H]2[C@@H]3CCC4=CC(=O)CC[C@@H]4[C@H]3CC[C@@]21CC [Levonorgestrel]	> 90 µM	–
C[C@@H]1CC(=O)NN=C1c1ccc(NN=C(C#N)C#N)cc1 [Levosimendan]	14.8 µM	–
CCN1CCC[C@H]1CNC(=O)c1cc(S(N)(=O)=O)ccc1OC [Levosulpiride]	> 50 µM	–
N[C@@H](Cc1cc(I)c(Oc2cc(I)c(O)c(I)c2)c(I)c1)C(=O)O [Levothyroxine]	> 60 µM	–
Clc1cccc(C(c2ccc3[nH]cnc3c2)n2ccnc2)c1 (stereo not shown) [Liarozole hydrochloride]	> 50 µM	–
CN=C(N)NC(=O)Nc1c(C)cccc1C [Lidamidine]	> 50 µM	–
Cc1cccc(C)c1NC(=O)CN(CC(=O)O)CC(=O)O [Lidofenin]	> 50 µM	–
Cc1cccc(C)c1NC(=O)CN1CCN(CCCC(c2ccc(F)cc2)c2ccc(F)cc2)CC1 [Lidoflazine]	11.6 µM	–
CN1CCC(OC(=O)C(Oc2ccc(Cl)cc2)Oc2ccc(Cl)cc2)CC1 [Lifibrate]	27.6 µM	–
CC1(C2CCC3(C)OC3C2)CO1 (stereo not shown) [Limonene dioxide]	> 90 µM	–
CC1(C)O[C@H]2CC(=O)OC[C@]23[C@H]2CC[C@@]4(C)[C@H](c5ccoc5)OC(=O)[C@H]5O[C@]54[C@]2(C)C(=O)C[C@@H]13 [Limoni]	> 50 µM	–
C=CC(C)(O)CCC=C(C)C (stereo not shown) [Linalool]	> 90 µM	–
C=CC(C)(CCC=C(C)C)OC(C)=O (stereo not shown) [Linalyl acetate]	> 90 µM	–
C=CC(C)(CCC=C(C)C)OC(=O)c1ccccc1N (stereo not shown) [Linalyl anthranilate]	> 90 µM	–
C=CC(C)(CCC=C(C)C)OC(=O)c1ccccc1 (stereo not shown) [Linalyl benzoate]	53.7 µM	–
C=CC(C)(CCC=C(C)C)OC(=O)/C=C/c1ccccc1 (stereo not shown) [Linalyl cinnamate]	> 90 µM	–
C=CC(C)(CCC=C(C)C)OC=O (stereo not shown) [Linalyl formate]	> 90 µM	–
C=CC(C)(CCC=C(C)C)OC(=O)C(C)C (stereo not shown) [Linalyl isobutyrate]	> 90 µM	–

SMILES	CC50 at 24 h (AC50 (uM) modified / 1000)	other results
C=CC(C)(CCC=C(C)C)OC(=O)CC(C)C (stereo not shown) [Linalyl isovalerate]	> 90 µM	–
CCC[C@@H]1C[C@@H](C(=O)N[C@@H]([C@H]2O[C@H](SC)[C@H](O)[C@@H](O)[C@H]2O)[C@@H](C)O)N(C)C1 [Lincomycin hydrochloride]	> 50 µM	–
CC(=O)NC[C@H]1CN(c2ccc(N3CCOCC3)c(F)c2)C(=O)O1 [Linezolid]	> 50 µM	–
CC/C=C\C/C=C\C/C=C\CCCCCCCC(=O)O [Linolenic acid]	> 90 µM	–
O=C1N(c2ccccc2)c2ccccc2C1(Cc1ccncc1)Cc1ccncc1 [Linopirdine]	> 50 µM	–
O=C(O)COc1ccc(CCNS(=O)(=O)c2ccccc2)s1 [Linotroban]	> 50 µM	–
O=C(O)Cn1c(C(=O)Nc2nc(-c3ccccc3Cl)cs2)cc2ccccc21 [Lintitript]	> 50 µM	–
CON(C)C(=O)Nc1ccc(Cl)c(Cl)c1 [Linuron]	> 90 µM	–
COc1cccc(N(C)C(=S)Oc2ccc3c(c2)CCCC3)n1 [Liranaftate]	> 50 µM	–
NCCCC[C@H](N[C@@H](CCc1ccccc1)C(=O)O)C(=O)N1CCC[C@H]1C(=O)O [Lisinopril dihydrate]	> 20 µM	–
O=S(=O)(O)C(F)(F)C(F)(F)C(F)(F)C(F)(F)C(F)(F)C(F)(F)C(F)(F)C(F)(F)F [Lithium perfluorooctanesulfonate]	–	CC50 at 24 h (AC50 (uM) modified / 1000, Tox21_110001=Tox21_302319, viability, 1 nM T3 present, 24 h): 52.3 µM
CC(C)(C)OC(=O)N1CC(N)C1 [Lithium sulfate]	> 5 µM	–
CN1[C@@H](CC(=O)c2ccccc2)CCC[C@H]1C[C@H](O)c1ccccc1 [Lobeline]	> 50 µM	–
O=C(O)c1ccccc1Nc1cc(Cl)ccc1C(=O)O [Lobenzarit sodium]	> 50 µM	–
CN(CCCN1c2ccccc2CCc2ccccc21)CC(=O)c1ccc(Cl)cc1 [Lofepramine hydrochloride]	22 µM	–
CCn1cc(C(=O)O)c(=O)c2cc(F)c(N3CCNC(C)C3)c(F)c21 (stereo not shown) [Lomefloxacin hydrochloride]	> 50 µM	–
COc1ccc(CN2CCN(C(c3ccc(F)cc3)c3ccc(F)cc3)CC2)c(OC)c1OC [Lomerizine dihydrochloride]	10.5 µM	–
O=C(O)Cc1cn(-c2ccccc2)nc1-c1ccc(Cl)cc1 [Lonazolac]	> 50 µM	–
